Reference: ChEMBL document CHEMBL1141139 (J Med Chem, 2005)

Tests used:
[1] = Lethal dose against rodents; Range = 1200-10e4 nmol/kg; format: toxicity; conditions: rodentia
[2] = target: T1, Neuronal acetylcholine receptor; alpha3/beta4 (Rattus norvegicus, UniProt P04757+P12392); assay: Effective concentration against alpha3-beta4 nicotinic acetylcholine receptor (nAChR) expressed in IMR32 cell; format: cell-based, IMR-32
[3] = target: Neuronal acetylcholine receptor; alpha4/beta2 (Rattus norvegicus, UniProt P09483+P12390); assay: Displacement of [3H]-cytisine from Alpha4-beta2 Nicotinic acetylcholine receptor of rat brain homogenates; format: tissue-based
[4] = target: T1, Neuronal acetylcholine receptor; alpha3/beta4; assay: Displacement of [3H]epibatidine from Alpha3 Beta4 Nicotinic acetylcholine receptor of rat brain homogenates
[5] = Lethal dose against rodents; Range = 1200-10e4; format: toxicity; conditions: rodentia
[6] = Lethal dose against rodents; format: toxicity; conditions: rodentia
[7] = Lethal dose against rodents; Range = 12-120 nmol/kg; format: toxicity; conditions: rodentia, in vivo
[8] = target: T1, Neuronal acetylcholine receptor; alpha3/beta4; assay: Effective concentration against alpha3-beta4 nicotinic acetylcholine receptor (nAChR) expressed in Xenopus oocytes; format: cell-based, Oocyte
[9] = Lethal dose against rodents; Range = 7-67 nmol/kg; format: toxicity; conditions: rodentia, in vivo
[10] = Lethal dose against rodents; Range = 1.37e5 nmol/kg; format: toxicity; conditions: rodentia
[11] = target: T1, Neuronal acetylcholine receptor; alpha3/beta4; assay: Effective concentration against alpha3-beta4 Nicotinic acetylcholine receptor (nAChR); format: protein-complex assay
[12] = Lethal dose against rodents; Range = 1.38e7 nmol/kg; format: toxicity; conditions: rodentia

T1 sequence (P04757 whole entry): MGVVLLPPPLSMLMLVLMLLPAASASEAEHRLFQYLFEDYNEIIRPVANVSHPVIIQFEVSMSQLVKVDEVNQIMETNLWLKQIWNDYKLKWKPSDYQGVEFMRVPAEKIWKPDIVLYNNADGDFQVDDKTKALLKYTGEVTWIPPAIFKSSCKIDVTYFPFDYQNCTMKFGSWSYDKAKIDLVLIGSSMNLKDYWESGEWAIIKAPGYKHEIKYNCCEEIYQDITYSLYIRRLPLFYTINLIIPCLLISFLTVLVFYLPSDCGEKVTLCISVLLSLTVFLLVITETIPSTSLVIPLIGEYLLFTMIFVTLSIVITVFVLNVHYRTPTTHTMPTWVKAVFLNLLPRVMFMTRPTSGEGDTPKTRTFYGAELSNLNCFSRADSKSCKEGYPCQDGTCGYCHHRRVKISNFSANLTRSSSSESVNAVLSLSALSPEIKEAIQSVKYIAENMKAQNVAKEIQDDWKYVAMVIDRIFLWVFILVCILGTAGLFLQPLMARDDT
T1 sequence (P12392 whole entry): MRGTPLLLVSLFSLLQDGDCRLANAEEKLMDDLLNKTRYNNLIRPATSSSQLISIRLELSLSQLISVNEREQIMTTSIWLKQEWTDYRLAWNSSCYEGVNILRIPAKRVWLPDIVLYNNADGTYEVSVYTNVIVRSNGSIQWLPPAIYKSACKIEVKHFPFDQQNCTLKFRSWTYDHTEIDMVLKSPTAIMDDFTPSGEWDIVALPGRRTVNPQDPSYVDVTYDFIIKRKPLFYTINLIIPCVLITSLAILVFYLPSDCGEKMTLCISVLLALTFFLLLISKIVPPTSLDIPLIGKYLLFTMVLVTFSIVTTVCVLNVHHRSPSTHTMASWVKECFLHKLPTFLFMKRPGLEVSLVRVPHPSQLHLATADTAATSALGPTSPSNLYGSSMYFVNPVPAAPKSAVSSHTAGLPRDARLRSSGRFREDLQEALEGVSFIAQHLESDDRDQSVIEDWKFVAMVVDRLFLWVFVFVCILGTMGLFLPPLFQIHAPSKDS
Neuronal acetylcholine receptor; alpha4/beta2, sequence (P09483 whole entry): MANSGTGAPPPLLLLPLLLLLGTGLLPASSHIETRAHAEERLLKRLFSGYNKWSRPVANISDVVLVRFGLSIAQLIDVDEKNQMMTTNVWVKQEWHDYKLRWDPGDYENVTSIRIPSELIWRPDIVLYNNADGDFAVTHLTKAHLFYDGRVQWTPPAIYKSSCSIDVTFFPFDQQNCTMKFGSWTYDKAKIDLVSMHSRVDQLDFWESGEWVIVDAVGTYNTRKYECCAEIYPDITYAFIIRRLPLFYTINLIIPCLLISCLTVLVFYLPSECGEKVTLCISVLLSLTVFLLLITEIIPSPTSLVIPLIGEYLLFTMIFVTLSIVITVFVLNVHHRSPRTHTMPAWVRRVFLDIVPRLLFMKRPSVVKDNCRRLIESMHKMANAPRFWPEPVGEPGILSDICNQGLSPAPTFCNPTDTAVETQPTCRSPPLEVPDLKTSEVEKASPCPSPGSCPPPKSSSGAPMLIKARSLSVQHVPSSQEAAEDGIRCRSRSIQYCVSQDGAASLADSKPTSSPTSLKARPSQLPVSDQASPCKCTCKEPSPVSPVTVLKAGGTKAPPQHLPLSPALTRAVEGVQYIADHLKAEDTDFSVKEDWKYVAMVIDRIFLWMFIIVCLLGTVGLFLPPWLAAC
Neuronal acetylcholine receptor; alpha4/beta2, sequence (P12390 whole entry): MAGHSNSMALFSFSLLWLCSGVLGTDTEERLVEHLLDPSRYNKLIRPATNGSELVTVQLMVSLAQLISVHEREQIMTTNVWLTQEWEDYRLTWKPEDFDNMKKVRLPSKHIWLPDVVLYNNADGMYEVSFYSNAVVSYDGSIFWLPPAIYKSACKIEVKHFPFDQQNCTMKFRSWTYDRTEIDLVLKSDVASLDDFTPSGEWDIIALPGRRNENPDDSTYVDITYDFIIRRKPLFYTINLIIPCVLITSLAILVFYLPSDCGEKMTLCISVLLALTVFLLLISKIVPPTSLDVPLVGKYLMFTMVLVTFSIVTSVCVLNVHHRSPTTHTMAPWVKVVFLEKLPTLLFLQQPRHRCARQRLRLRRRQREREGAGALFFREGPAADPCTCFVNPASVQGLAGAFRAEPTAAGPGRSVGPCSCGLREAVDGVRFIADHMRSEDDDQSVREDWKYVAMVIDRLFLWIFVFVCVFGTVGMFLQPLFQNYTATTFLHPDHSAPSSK

CN1CCCC1COc1cccnc1 (configuration not stated)
LD50 [1]: 100 µmol/kg
EC50 [2]: 63000 nM
Ki [3]: 0.15 nM

c1cncc(OCC2CCN2)c1 (configuration not stated)
Ki [4]: 73.6 nM
Ki [3]: 0.05 nM
LD50 [5]: 100 µmol/kg

CN1CCCC1COc1ccc(Cl)nn1 (configuration not stated)
Ki [3]: 29 nM

CN1CCCC1COc1cnccn1 (configuration not stated)
Ki [3]: 16.3 nM

CN1CCCC1COc1ccccn1 (configuration not stated)
Ki [3]: 495 nM

CN1C2C=C(c3cccnc3)CC1CC2 (configuration not stated)
LD50 [6]: 0.25 µmol/kg

c1cncc(C2CC3CCC2N3)c1 (single isomer, unassigned; (+)) [DESCHLOROEPIBATIDINE]
LD50 ([7]; read-out: LD50): 0.12 µmol/kg
EC50 [8]: 510 nM
Ki [3]: 0.064 nM

c1cncc(C2CC3CCC2N3)c1 (single isomer, unassigned; (-)) [DESCHLOROEPIBATIDINE]
LD50 [7]: 0.12 µmol/kg
EC50 [8]: 250 nM
Ki [3]: 0.015 nM

Clc1ccc([C@@H]2C[C@H]3CC[C@@H]2N3)cn1 [(+)-EPIBATIDINE]
LD50 [9]: 0.067 µmol/kg

Cc1cc([C@@H]2CCCN2C)on1 [ABT-418]
LD50 [10]: 137 µmol/kg
EC50 [11]: 209000 nM
Ki [3]: 4 nM

CC(=O)OCC[N+](C)(C)C [ACETYLCHOLINE]
LD50 [12]: 13800 µmol/kg

Clc1ccc(C2CC3CCC2N3)cn1 (configuration not stated) [EPIBATIDINE]
LD50 [9]: 0.067 µmol/kg
